Measurements from patent publication US20220362120A1, “STABILIZATION OF RESORCINOL COMPOUNDS IN COSMETIC COMPOSITIONS” (Conopco, Inc., d/b/a UNILEVER, priority 2019, published 2022).

Assays:
[1] = Color evaluation of 4-alkylresorcinol solutions (visual and L*a*b*, Labscan XE) after 2 weeks at R.T.; format: physicochemical; conditions: for Appearance (visual appearance of solution) / L* / b* / a*: after 2 weeks at R.T. (~20-22° C.), DI water:butylene glycol (4:1); for L*: black (L*=0) to white (L*=100); for b*: blue (b*<0) to yellow (b*>0); for a*: green (a*<0) to red (a*>0)
Protocol: Samples for color evaluation were prepared by dissolving 4-hexylresorcinol (200 mg) or 4-ethylresorcinol (200 mg) in DI water:butylene glycol (4:1; 20 ml) to generate a clear colorless homogeneous solution. A portion of each solution (5 ml) was added to a 20 ml scintilation vial containing either niacinamide (B3) (50 mg), AceMet (acetyl methionine) (50 mg) or B3 (50 mg)+AceMet (50 mg) and monitored @ R.T. (˜20-22° C.). After 2 weeks, the color of each solution was assessed visually and L*a*b* measurements determined experimentally using a Labscan XE instrument (Hunter Associates Labs Inc., Reston, Va.) and processed with Universal Software (version 4.10). The L* parameter measures darkness and lightness and ranges from black (L*=0) to white (L*=100). The a* parameter measures color content and intensity ranging from green (a*<0) to neutral grey (a*=0) to red (a*>0). The b* parameter also measures color content and intensity ranging from blue (b*<0) to neutral grey (b*=0) to yellow (b*>0).

[2] = Quantitation of 4-alkyl resorcinols by HPLC (peak area @ 281 nm vs freshly prepared control); format: physicochemical; conditions: for 4-Alkylresorcinol (% of control): after 2 weeks at R.T. (~20-22° C.), HPLC, mean of duplicates, DI water:butylene glycol (4:1)
Protocol: The amount of 4-alkylresorcinol present in each of the samples used for the color measurements was quantitated after 2 weeks @ R.T. (˜20-22° C.) by high performance liquid chromatography (HPLC). An sample aliquot (100 uL) from each of the color measurement solutions was diluted with DI water:acetonitrile (1:1, 900 uL) to generate test samples (1 ml). An aliquot (10 uL) from each test sample was injected into a Waters 2695 Separations Module, chromatographed and separated on a Restek Pinnacle DB C18 (5 um, 4.6×150 mm) column operated at 30° C. and the 4-alkylresorcinols monitored using a Waters 2996 Photodiode Array Detector set @ 281 nm. The mobile phase consisted of water (A) and acetonitrile (B) and optimum separation was achieved using a gradient from 95:5 (A:B) to 5:95 (A:B) in 20 min, followed by isocratic elution at 5:95 (A:B) for 3 min at a flow rate of 1 ml/min. The chromatographic data was processed using Empower 2 software (Waters Corporation, Milford, Mass.). Standard control samples of 4-alkylresorcinols at 1×, 5× higher and 5× lower concentrations were prepared fresh and immediately analysed; standard curves were generated within the test sample range and linearity was confirmed.
All samples were analyzed in duplicate and the mean value reported. The amount of 4-alkylresorcinol present for each test sample after 2 weeks was determined by measuring the chromatographic peak area under the curve @ 281 nm for the 4-alkylresorcinol and expressed as the percent ratio over the corresponding chromatographic peak area under the curve @ 281 nm for the freshly prepared control sample.

Which results are given for CCCCCCc1ccc(O)cc1O [1% HR, 4-hexylresorcinol]?
Appearance (visual appearance of solution) [1]: reddish-pink; L* [1]: 84.77; b* [1]: 13.4; a* [1]: 11.4; color of solution ([1]; freshly prepared solution): colorless; decrease of the level of HR ([2]; HR solution after 2 weeks): 40%; decomposition of HR ([2]; HR solution with addition of B3, after 2 weeks): 55%; 4-Alkylresorcinol (% of control) [2]: 60 % of control; decomposition upon HPLC analysis ([2]; freshly prepared solution): no decomposition

Which results are given for CCc1ccc(O)cc1O [1% ER, 4-ethylresorcinol]?
Appearance (visual appearance of solution) [1]: light orange; L* [1]: 82.74; b* [1]: 39.57; a* [1]: 6.38; 4-Alkylresorcinol (% of control) [2]: 96 % of control
